Starred links: 1 amine or outer side, 2 acyl side, 3 side chain; linkers in the order of their positions; H or OH if unused. Positions of bridges follow the written chain, without caps; N, C: chain ends. Non-standard residues stand in square brackets, D forms with d. Residues, ends and D or L forms follow the SMILES beside them. Chains are numbered I, II in the order given. No end group written: not given here. Actinocin(9to1) = Cc1c2oc3c(C)ccc(C(=O)[*:1])c3nc-2c(C(=O)[*:2])c(N)c1=O; NMeV = CN[C@H](C(=O)O)C(C)C; Sar = CNCC(=O)O
Experiments:
HT-29 colon cancer cells [1] = experiment: Combination with chemotherapy drugs, apoptosis in HT-29; assay type: cell-based; settings: for interaction of chemotherapy drug with zinc-charged peptide (apoptosis): drug 6 μg per ml 12 hours, then zinc-charged 4H 4 μM for 6 hours, HT-29
Protocol: To test this, HT-29 colon cancer cells were pre-incubated with various chemotherapy drugs at 6 μg per ml for 12 hours, then zinc-charged 4H at 4 μM was added for an additional 6 hours. Most chemotherapy drugs take up to 48 hours to see substantial apoptosis, and as such, the cells were pre-incubated with chemotherapy drugs first. The chemotherapy drugs tested included actinomycin (“A”), carmustine (“C”), docorubicin (“Dox”), genistin (“G”), 5-FU, and Tarceva.

[2] = Water solubility of the peptide; assay type: physicochemical; settings: uncharged peptide
Description: The first peptide, listed as SEQ. ID NO. 1 in the accompanying sequence listing, has an amino acid sequence of E-Y-G-L-F-Q-I-S-N-K-L. This peptide, which is derived from natural human alpha-lactalbumin, will be referred to herein as “4H.” The second peptide, listed as SEQ. ID NO. […] This peptide has an amino acid sequence of E-Y-G-L-F-Q-I-S-N-K-K and will be referred to herein as “4H3.” Both these peptides were charged with zinc ions using the disclosed method to activate their apoptotic activities. Further, once these two peptides were charged with zinc ions, additional effects such as reducing Tau protein, increasing brain ATP levels and inhibiting P38 in the brain were observed, showing that these zinc-charged peptides further have a role in treating diseases involving tauopathy, such as Alzheimer's Disease and Parkinson's Disease.
Disclosed herein are two zinc-charged chemically synthesized peptides based upon the alpha-lactalbumin that are able to treat cancer and diseases involving tauopathy once activated by the disclosed method of charging the peptides with zinc ions. The first peptide, 4H, has an amino acid sequence of E-Y-G-L-F-Q-I-S-N-K-L (Seq. No. 1). The second peptide, 4H3, has an amino acid sequence of E-Y-G-L-F-Q-I-S-N-K-K (Seq. No. 2). […]

[3] = tested on: various cancer cell lines; experiment: Apoptosis-inducing activity on various cancer cell lines (earlier work); assay type: cell-based
Description: Cow milk is known to contain numerous proteins and other beneficial compounds for humans.
(§1) Since alpha-lactalbumin is the major milk protein present in milk, this protein was first tested to determine if the bioactive peptides were derived from alpha-Lactalbumin. Purified alpha-lactalbumin was therefore treated with EDTA and zinc acetate.

[4] = Absorption by gastrointestinal tract (earlier work); settings: before digestion with papain
Description: as §1

[5] = tested on: normal colon cell line CCD18Co; experiment: Glycolysis (lactate) in CCD18Co cell lysate; assay type: cell-based; settings: FIG. 8a
Protocol: (§2) FIG. 8a is a bar graph depicting the level of glycolysis end product lactate in HT-29 colon cancer cell lysate and of normal CCD18Co colon cell lysate after incubation with zinc-charged peptide 4H compared to a control of unincubated HT-29 cancer cell lysate and unincubated normal CCD18Co colon cell lysate.
(§3) The zinc-charged peptides ability to inhibit glycolysis in other cancer cell lines, such as lung cancer, compared to their normal counterparts was also tested. […] To further study this observed phenomena in vivo, normal mice were fed with the zinc-charged 4H for five days, and the glycolysis of normal brain cells were studied. FIG. 9 depicts the results of this study. For this study, two groups of mice having four mice per group were compared, one being the control and the other being fed 0.5 mg of zinc-charged 4H per mouse per day for 5 days orally. After 5 days, brain and muscle tissue was collected, homogenized, and assayed for glycolysis rate.

normal WI38 lung cells = experiment: Glycolysis (lactate) in WI38 cell lysate; assay type: cell-based; settings: WI38, FIG. 8b
Protocol: as §2, with “8b” for “8a”, “Calu-1 lung” for “HT-29 colon”, “WI38 lung” for “CCD18Co colon”, “Calu-1 lung” for “HT-29”
as §3

HT-29 colon cancer cells [6] = experiment: Glycolysis (lactate) in HT-29 cell lysate; assay type: cell-based
Protocol: (§4) To determine the mechanism of induction of apoptosis to HT-29 cancer cells by the zinc-charged peptides, a low concentration (1 μM) of zinc-charged 4H was incubated with HT-29 cancer cells, followed by biochemical analysis of the cell lysate of the HT-29 cancer cells.
(§5) Furthermore, the decreased lactate was associated with a lower ATP level and a lower Glucose-6-phosphate (G-6-P) level in HT-29 cells.
as §3

hexokinase II [7] = biological target: T1, hexokinase II (Homo sapiens, UniProt P52789); experiment: Subcellular hexokinase II activity in HT-29; assay type: cell-based; settings: HT-29, 1 μM, 5 hours
T1 sequence (P52789 1-917): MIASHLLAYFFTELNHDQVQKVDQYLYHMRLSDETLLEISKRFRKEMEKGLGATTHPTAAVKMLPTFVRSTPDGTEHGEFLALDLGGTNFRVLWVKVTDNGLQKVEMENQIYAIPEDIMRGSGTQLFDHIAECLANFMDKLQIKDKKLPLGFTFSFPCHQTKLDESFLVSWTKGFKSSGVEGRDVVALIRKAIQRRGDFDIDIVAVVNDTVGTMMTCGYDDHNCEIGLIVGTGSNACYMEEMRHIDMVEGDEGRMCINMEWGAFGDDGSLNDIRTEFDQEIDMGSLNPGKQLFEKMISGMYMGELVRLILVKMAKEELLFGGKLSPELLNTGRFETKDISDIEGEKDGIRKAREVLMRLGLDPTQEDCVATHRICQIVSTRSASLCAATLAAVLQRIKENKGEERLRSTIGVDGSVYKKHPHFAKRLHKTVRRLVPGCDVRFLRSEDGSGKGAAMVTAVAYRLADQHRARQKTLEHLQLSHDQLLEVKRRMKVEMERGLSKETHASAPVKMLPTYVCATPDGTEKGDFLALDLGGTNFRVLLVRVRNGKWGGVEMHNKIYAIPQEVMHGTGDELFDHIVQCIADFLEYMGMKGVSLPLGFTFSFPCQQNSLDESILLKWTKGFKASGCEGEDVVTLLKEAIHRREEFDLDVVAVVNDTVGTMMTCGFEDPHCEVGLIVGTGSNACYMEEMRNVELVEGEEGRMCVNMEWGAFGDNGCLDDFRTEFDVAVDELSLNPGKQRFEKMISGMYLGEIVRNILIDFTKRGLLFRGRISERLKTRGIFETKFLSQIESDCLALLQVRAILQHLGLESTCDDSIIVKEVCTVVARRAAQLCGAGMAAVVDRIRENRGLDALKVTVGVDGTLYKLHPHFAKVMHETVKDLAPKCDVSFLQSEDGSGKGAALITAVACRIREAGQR
Protocol: FIG. 14 is a bar graph depicting the subcellular hexokinase II activity in mitochondria, cytosol, and microsome of HT-29 cells incubated with the zinc-charged peptide (4H, 1 μM, for 5 hours) compared to a control of only the vehicle.
FIGS. 14-16 depicts the testing results validating that the zinc-charged peptides inhibit each of these three bioenergetic pathways. FIG. 14 depicts the subcellular hexokinase II activity in mitochondria, cytosol, and microsome to determine whether the zinc-charged peptides inhibit the hexokinase II activity in mitochondria. For this test, HT-29 cancer cells were incubated with zinc-charged 4H at 1 μM for 5 hours. After incubation, sub-cellular fractions including cytosol, microsome, and mitochondria were prepared and the hexokinase II activity on these sub-cellular fractions were tested.

muscle tissue glycolysis = experiment: Muscle glycolysis in normal mice after oral dosing; assay type: in vivo; settings: 0.5 mg per mouse per day, 5 days
Protocol: FIG. 9b is a bar graph depicting the level of glycolysis in the muscle tissue of normal mice after the mice were orally administered the zinc-charged peptide (4H, 0.5 mg/mouse) for five days compared to a control.
as §3
(§6) In mice fed with 0.5 mg of zinc-charged 4H for 5 days, the brain glycolysis of these mice was enhanced by 44%.

hexokinase II [8] = biological target: T1, hexokinase II; experiment: In vitro hexokinase II assay; assay type: biochemical
Protocol: To test confirm that the zinc-charged peptides inhibit hexokinase II resulting in the inhibition of glycolysis, an in vitro hexokinase II assay was performed. FIG. 7 depicts the results of the in vitro hexokinase II assay. In this test, it was observed that hexokinase II was inhibited by zinc-charged 4H in a dose-dependent manner. […] These findings confirm that the zinc-charged peptides inhibit glycolysis at the hexokinase II enzyme level.

brain tissue glycolysis = experiment: Brain glycolysis in normal mice after oral dosing; assay type: in vivo; settings: 0.5 mg per mouse per day, 5 days
Protocol: FIG. 9a is a bar graph depicting the level of glycolysis in the brain tissue of normal mice (N=4) after the mice were orally administered the zinc-charged peptide (4H, 0.5 mg/mouse) for five days compared to a control.
as §3, §6

Calu-1 lung cancer cells = experiment: Glycolysis (lactate) in Calu-1 cell lysate; assay type: cell-based; settings: Calu-1, FIG. 8b
Protocol: as §2, with “8b” for “8a”, “Calu-1 lung” for “HT-29 colon”, “WI38 lung” for “CCD18Co colon”, “Calu-1 lung” for “HT-29”
as §3

brain ATP = experiment: Brain ATP level in mice after oral dosing; assay type: in vivo; settings: 4H 0.5 mg per mouse per day, 5 days, normal mice
Protocol: FIG. 10 is a bar graph depicting the brain ATP level of normal mice after the mice were orally administered the zinc-charged peptide (4H, 0.5 mg/mouse) for five days compared to a control.
FIG. 11a is a bar graph depicting the brain ATP level of mice after the mice were orally administered the zinc-charged peptide (4H3, 1 mg/mouse) for five days compared to a control.
as §6
FIGS. 11a-d provide the graphical representations of these observations. FIG. 11a depicts the level of brain ATP in mice that were orally administered zinc-charged 4H3 compared to mice who were given the control. […] FIG. 11b depicts the level of brain Tau protein ATP in mice that were orally administered zinc-charged 4H3 compared to mice who were given the control. In this test, a 2.7 μg protein load was utilized. […] FIG. 11c depicts a retest of FIG. 11b, but with a lower protein load utilized instead. […] Lastly, FIG. 11d depicts the brain P38 MAPK levels in mice that were orally administered zinc-charged 4H3 compared to mice who were given the control. In this test, the mice given the zinc-charged 4H3 saw their brain P38 MAPK levels decrease by 61%.

HT-29 cancer cells = experiment: Intracellular glucose-6-phosphate in HT-29; assay type: cell-based; settings: HT-29, 6 hours of incubation
Protocol: FIG. 6 is a bar graph depicting the level of intracellular Glucose-6-phosphate in HT-29 cancer cells after being incubated with the zinc-charged peptide 4H compared with a control.
as §4, §5

Cc1c2oc3c(C)ccc(C(=O)N[C@@H]4C(=O)N[C@H](C(C)C)C(=O)N5CCC[C@H]5C(=O)N(C)CC(=O)N(C)[C@@H](C(C)C)C(=O)O[C@@H]4C)c3nc-2c(C(=O)N[C@@H]2C(=O)N[C@H](C(C)C)C(=O)N3CCC[C@H]3C(=O)N(C)CC(=O)N(C)[C@@H](C(C)C)C(=O)O[C@@H]2C)c(N)c1=O [actinomycin] (I: T[dV]P[Sar][NMeV] / II: T[dV]P[Sar][NMeV]; ester I:1-I:C, II:1-II:C; linker I:N-II:N via Actinocin(9to1))
interaction of chemotherapy drug with zinc-charged peptide (apoptosis) (HT-29 colon cancer cells [1]): synergistic

EYGLFQISNKK [4H3, E-Y-G-L-F-Q-I-S-N-K-K]
water solubility compared with 4H [2]: more water-soluble

zinc-bound alpha-lactalbumin: purified alpha-lactalbumin treated with EDTA and zinc acetate
apoptosis-inducing activity [3]: contain apoptosis-inducing activity
absorption by gastrointestinal tract [4]: unable to be absorbed

O=c1[nH]cc(F)c(=O)[nH]1 [5-FU]
interaction of chemotherapy drug with zinc-charged peptide (apoptosis) (HT-29 colon cancer cells [1]): synergistic

O=c1c(-c2ccc(O)cc2)coc2cc(O[C@@H]3O[C@H](CO)[C@@H](O)[C@H](O)[C@H]3O)cc(O)c12 [genistin]
interaction of chemotherapy drug with zinc-charged peptide (apoptosis) (HT-29 colon cancer cells [1]): synergistic

COc1cccc2c1C(=O)c1c(O)c3c(c(O)c1C2=O)C[C@@](O)(C(=O)CO)C[C@@H]3O[C@H]1C[C@H](N)[C@H](O)[C@H](C)O1 [doxorubicin]
interaction of chemotherapy drug with zinc-charged peptide (apoptosis) (HT-29 colon cancer cells [1]): synergistic

E-Y-G-L-F-Q-I-S-N-K-L (EYGLFQISNKL; also: charged with zinc ions) [zinc-charged 4H, ID NO; 1 peptide derived from human alpha-lactalbumin, charged with zinc ions]
glycolysis inhibited [5]: 10.5%
glycolysis inhibition (normal WI38 lung cells): 0%
lactate lower than control cells (HT-29 colon cancer cells [6]; 1 μM, HT-29 lysate, FIG. 4): 81.4%
glycolysis inhibited (HT-29 colon cancer cells [6]; HT-29, FIG. 8a): up to 34.7%
mitochondria associated hexokinase II activity inhibited (hexokinase II [7]): 53%
muscle glycolysis increased (muscle tissue glycolysis): 15%
percentage of apoptosis in HT-29 after adding zinc-charged 4H to chemotherapy drugs (HT-29 colon cancer cells [1]; 4 μM for 6 hours after 12 hours drug pre-incubation): significantly increased
hexokinase II inhibited (hexokinase II [8]; 5 μM): 28.6%
hexokinase II inhibited (hexokinase II [8]; 10 μM): 79.1%
hexokinase II inhibited (hexokinase II [8]; 20 µM): 94.6%
brain glycolysis enhanced (brain tissue glycolysis): 44%
glycolysis inhibited (Calu-1 lung cancer cells): 11.1%
increase in brain ATP level (brain ATP): 31.4%
reduction of intracellular G-6-P level (HT-29 cancer cells): 39.6%

O=NN(CCCl)C(=O)NCCCl [carmustine]
interaction of chemotherapy drug with zinc-charged peptide (apoptosis) (HT-29 colon cancer cells [1]): synergistic
